Data taken from patent publication US20070203118A1, “SUBSTITUTED TETRAHYDROISOQUINOLINES USED IN THE FORM OF MMP INHIBITORS, METHOD FOR THE PRODUCTION AND USE THEREOF IN THE FORM OF DRUGS” (SANOFI-AVENTIS DEUTSCHLAND GMBH, priority 2004, published 2007).

Assays:
[1] = molecular target: T1, catalytic domain of human collagenase-1 (MMP-1) (Homo sapiens, UniProt P03956); assay: Enzymatic activity of the catalytic domain of human collagenase-1 (MMP-1), fluorogenic substrate; assay type: biochemical
T1 construct: Determination of the Enzymatic Activity of the Catalytic Domain of Human Collagenase-1 (MMP-1); purchased Biocol, Potsdam MMP1
T1 sequence (P03956 100-269 limits assumed): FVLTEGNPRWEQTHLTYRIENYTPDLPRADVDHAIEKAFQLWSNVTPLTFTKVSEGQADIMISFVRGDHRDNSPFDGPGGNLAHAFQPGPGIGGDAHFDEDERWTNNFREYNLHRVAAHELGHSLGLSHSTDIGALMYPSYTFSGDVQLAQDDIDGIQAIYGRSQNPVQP
Experimental: Determination of the Enzymatic Activity of the Catalytic Domain of Human Collagenase-1 (MMP-1)
Activation of the Pro enzyme: 2 parts by volume of Pro enzyme are incubated with 1 part by volume of APMA solution at 37° C. for 1 hour. The APMA solution is prepared from a 10 mmol/l p-aminophenylmercuric acetate solution in 0.1 mmol/l NaOH by dilution with 3 parts by volume of tris/HCl buffer pH7.5 (see below). The pH is adjusted to between 7.0 and 7.5 by adding 1 mmol/l HCl. After activation of the enzyme, it is diluted with the tris/HCl buffer to a concentration of 2.5 μg/ml.
The enzymic activity is measured by incubating 10 μl of enzyme solution with 10 μl of a 3% strength (v/v) buffered dimethyl sulfoxide solution (reaction 1) for 15 minutes. The enzyme inhibitor activity is measured by incubating 10 μl of enzyme solution with 10 μl of a 3% strength (v/v) buffered dimethyl sulfoxide solution which contains the enzyme inhibitor (reaction 2).
The enzymic reaction both in the case of reaction 1 and in the case of reaction 2 is followed after addition of 10 μl of a 3% strength (v/v) aqueous dimethyl sulfoxide solution which contains 0.3 mmol/l of the substrate by fluorescence spectroscopy (328 nm (extinction)/393 nm (emission)), and the enzymic activity is presented as increase in extinction per minute.
The effect of the inhibitor is calculated as percentage inhibition by the following formula: % inhibition=100−[(increase in extinction/minute in reaction 2)/increase in extinction/minute in reaction 1)×100].
The IC50, i.e. the inhibitor concentration necessary for 50% inhibition of the enzymic activity, is determined graphically by plotting the percentage inhibitions at various inhibitor concentrations.
The buffer solution contains 0.05% Brij (Sigma, Deisenhofen, Germany) and 0.1 mol/l tris/HCl, 0.1 mol/l NaCl, 0.01 mol/l CaCl2 (pH=7.5).
The enzyme solution contains 2.5 μg/ml of the enzyme domain.
The substrate solution contains 0.3 mmol/l of the fluorogenic substrate (7-methoxycoumarin-4-yl)acetyl-Pro-Leu-Gly-Leu-3-(2′,4′-dinitrophenyl)-L-2,3-diaminopropionyl-Ala-Arg-NH2 (Bachem, Heidelberg, Germany).

[2] = molecular target: T2, catalytic domain of human stromelysin (MMP-3) (Homo sapiens, UniProt P08254); assay: Enzymatic activity of the catalytic domain of human stromelysin (MMP-3), fluorogenic substrate; assay type: biochemical
T2 construct: Preparation and Determination of the Enzymatic Activity of the Catalytic Domain of Human Stromelysin (MMP-3); made in house
Experimental: Preparation and Determination of the Enzymatic Activity of the Catalytic Domain of Human Stromelysin (MMP-3) and of Neutrophil Collagenase (MMP-8)
The two enzymes stromelysin (MMP-3) and neutrophil collagenase (MMP-8) were prepared by the method of Ye et al. (Biochemistry; 31 (1992) pages 11 231-11 235). The enzymic activity or the effect of the enzyme inhibitor was measured by incubating 10 μl of enzyme solution with 10 μl of a 3% strength (v/v) buffered dimethyl sulfoxide solution which contained the enzyme inhibitor where appropriate, for 15 minutes. After addition of 10 μl of a 3% strength (v/v) aqueous dimethyl sulfoxide solution which contained 1 mmol/l of the substrate, the enzymic reaction was followed by fluorescence spectroscopy (328 nm (ex)/393 nm(em)). The enzymic activity is presented as increase in extinction/minute.
The IC50 values listed in Table 4 were determined as the inhibitor concentrations leading in each case to 50% inhibition of the enzyme. The buffer solution contained 0.05% Brij (Sigma, Deisenhofen, Germany) and 0.1 mol/l Tris/HCl, 0.1 mol/l NaCl, 0.01 mol/l CaCl2 and 0.1 mol/l piperazine-N,N′-bis[2-ethanesulfonic acid] (pH=7.5).
The MMP-3 enzyme solution contained 2.3 μg/ml and the MMP-8 enzyme solution 0.6 μg/ml of one of the enzyme domains prepared by the method of Ye et al. The substrate solution contained 1 mmol/l of the fluorogenic substrate (7-methoxycoumarin-4-yl)acetyl-Pro-Leu-Gly-Leu-3-(2′,4′-dinitrophenyl)-L-2,3-diaminopropionyl-Ala-Arg-NH2 (Bachem, Heidelberg, Germany).

T2 sequence (P08254 100-272 limits assumed): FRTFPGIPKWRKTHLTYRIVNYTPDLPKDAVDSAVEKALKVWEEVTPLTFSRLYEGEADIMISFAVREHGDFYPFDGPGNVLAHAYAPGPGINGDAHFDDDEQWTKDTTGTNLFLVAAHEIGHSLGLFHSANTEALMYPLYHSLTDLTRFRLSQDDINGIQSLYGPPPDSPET

In the case of “2-{2-[4-(4-fluorophenoxy)phenyl]ethanesulfonyl}-1,2,3,4-tetrahydroisoquinoline-1-hydroxycarboxamide [Compound 20]”, the IC50 [1] is reported as 300 nM and the IC50 [2] is reported as 23 nM.

`O=C(NO)[C@H]1c2ccccc2CCN1S(=O)(=O)c1ccc(Oc2ccc(Cl)cc2)cc1` [Compound 9] was tested, and the IC50 [1] was 42 nM and the IC50 [2] was 23 nM.

`O=C(NO)[C@H]1c2ccccc2CCN1S(=O)(=O)c1ccc(Oc2ccncc2)cc1` [Compound 11] was tested, and the IC50 [1] was 500 nM and the IC50 [2] was 25 nM.

Compound `COc1cc2c(cc1OC)[C@@H](C(=O)NO)N(S(=O)(=O)c1ccc(-c3ccc(Cl)cc3)cc1)CC2` [Compound 15] has an IC50 [1] of 300 nM and an IC50 [2] of 20 nM.

In the case of `COc1ccc(F)c2c1[C@H](C(=O)NO)N(S(=O)(=O)c1ccc(-c3ccc(Cl)cc3)cc1)CC2` [Compound 18], the IC50 [1] is reported as 4000 nM and the IC50 [2] is reported as 800 nM.

In the case of `O=C(NO)[C@H]1c2ccccc2CCN1S(=O)(=O)c1ccc(Oc2ccc(C(F)(F)F)cc2)cc1` [Compound 21, (R)-2-[4-(4-trifluoromethylphenoxy)benzenesulfonyl]-1,2,3,4-tetrahydro-isoquinoline-1-hydroxycarboxamide], the IC50 [1] is reported as 1000 nM and the IC50 [2] is reported as 33 nM.

`O=C(NO)[C@H]1c2ccccc2CCN1S(=O)(=O)c1ccc(Oc2ccc(OCC(F)(F)F)cc2)cc1` [Compound 22] gave an IC50 [1] of 1600 nM and an IC50 [2] of 520 nM.

For `O=C(NO)[C@H]1c2ccccc2CCN1S(=O)(=O)c1ccc(Oc2ccc(OC(F)(F)F)cc2)nc1` [Compound 43, (R)-2-[6-(4-trifluoromethoxyphenoxy)pyridine-3-sulfonyl]-1,2,3,4-tetrahydro-isoquinoline-1-hydroxycarboxamide], the IC50 [1] was over 10000 nM and the IC50 [2] was 300 nM.

In the case of `O=C(NO)[C@H]1c2ccccc2CCN1S(=O)(=O)c1ccc(Oc2ccc(Cl)cc2)nc1` [Compound 45, (R)-2-[6-(4-chlorophenoxy)pyridine-3-sulfonyl]-1,2,3,4-tetrahydroisoquinoline-1-hydroxycarboxamide], the IC50 [1] is reported as 2000 nM and the IC50 [2] is reported as 45 nM.

Work on “(R)-4-(1-hydroxycarbamoyl-3,4-dihydro-1H-isoquinoline-2-sulfonyl)phenyl benzoate [Compound 48]” yielded an IC50 [1] of 89 nM and an IC50 [2] of 26 nM.
